Assay results from US20080115593A1, “Method for Detecting Conformational Change of Calmodulin, a Method for Screening a Substance Having an Activity that Affects to Conformational Change of Calmodulin” (FUENCE CO., LTD., priority 2004, published 2008).

Biological target: T1, Calmodulin derived from bovine (Bos taurus, UniProt P62157)
T1 construct: purchased Sigma
Assay: Tension and elasticity change of calmodulin film detected by mechanochemical sensor (Example 1)
Type: binding
Details: FIG. 1; for isotropic tension of the calmodulin film: 10 mM Hepes buffer pH7.4 containing 0.1 M NaCl, flow 0.1 to 0.2 mL/min
Protocol: Calmodulin derived from bovine (Sigma) was dissolved into purified water at a concentration of 2 mg/ml. This solution was sprayed under dry air using an electrospry device described in WO 2002-511792 or an immobilzing device described in Japanese Patent Publication No. 2003-136005. The solution was permeated through a mask with holes of 400 μm in length and 800 μm in width, and then a film was prepared on 1.2% polyvinylpyrrolidone using an electrospray method (the EDS method). The resulting film was placed on an apparatus having a mechanochemical sensor which was described in WO 2002-503332 or U.S. Pat. Publication No. 6,033,913, and it was immersed into 10 mM Hepes buffer solution pH7.4 (hereinafter referred to as “the buffer solution”) containing 0.1 M NaCl. The buffer solution was passed through the film existing on the detecting apparatus at the flow rate of 0.1 to 0.2 mL/min, in order to stabilize the tension of the sample film. Thereafter CaCl2 solution dissolved in said buffer solution was passed through at the same flow rate to detect changes in tension and elasticity (FIG. 1).
A place where the horizontal line (indicating the initial state) uprises means a point where tension is given to the sample film, and compliance is detected where the line oscillates. […] Meanwhile, for example, following review can be refereed to the conformational change of calmodulin, (Vetter S. W. and Leclerc, E. (2003). Novel aspects of calmodulin target recognition and activation. Eur. J. Biochem. 270, 404-414).

isotropic tension of the calmodulin film	reversibility of the effect on the film when restored by the buffer solution (buffer solution passed after CaCl2)	Structure (SMILES)
remarkably increases	reversible	[Ca+2].[Cl-].[Cl-] [CaCl2]
further decreases	–	O=C(O)CN(CCN(CC(=O)O)CC(=O)O)CC(=O)O [EDTA]
